Test results taken from patent publication US20240208950A1, “COMPOSITIONS AND METHODS FOR TREATMENT OF CERVICAL AND OVARIAN CANCER” (SOUTH DAKOTA BOARD OF REGENTS, priority 2021, published 2024).

Experiments:
SiHa cells [1] = assay: Colony formation assay, SiHa; assay type: cell-based, human; conditions: SiHa, 2.5, 5 and 7.5 μM
Method: FIGS. 5A and 5B show representative colony images of CaSki cells (FIG. 5A) and SiHa cells (FIG. 5B) treated with various concentrations of ORM-Br ranging from […]. FIGS. 5C and 5D represent the quantification of colony formation in CaSki cells (FIG. 5C) and SiHa cells (FIG. 5D) treated with various concentrations of ORM-Br ranging from 0 to 7.5 μM.
To determine the effect of Br-ORM on clonogenic potential of CaSki and SiHa cells, a colony formation assay was performed. In brief, 500 cells were seeded per well in a 6-well plate and allowed to stand for the next three days. The cells were treated with Br-ORM with different concentrations (2.5, 5, and 7.5 μM) for seven days and then followed by normal growth media. […] Colonies were fixed in methanol, stained with haematoxylin, and counted using UVP 810 software.
FIG. 13. […] Cell viability was assessed by MTS assay. […] Bar graphs indicating quantification of colony formation in CaSki (i), and SiHa (ii) cells of cervical cancer with respect to vehicle control. […] Briefly, cervical cancer cells were treated with Br-ORM (10 μM) for 24 hours and the apoptosis inducing effect of Br-ORM was analyzed by Annexin V staining. […] The equal loading of protein in each lane was determined by probing the blots with β-actin antibody (FIG. 13F). […] Br-ORM arrests cell cycle in G1/S phase as determined by flow cytometry. […]

CaSki cells = assay: Cell cycle analysis by flow cytometry, CaSki; assay type: cell-based, human; conditions: 10 and 15 μM
Method: (§1) The effect of Br-ORM on cell cycle analysis was performed by flow cytometry as has described in the art. In brief, approximately 70% confluent cervical cancer cells were treated with Br-ORM (10 and 20 μM) for 24 hours. The cells were trypsinized and washed twice with ice-cold PBS (1×). The cell pellets were resuspended in 50 μL of ice cold PBS (1×) and 450 μL of cold methanol. The cells were washed twice with ice cold PBS (1×), suspended in 500 μL PBS, and incubated with 500 μL RNase (20 μg/mL final concentration) at 37° C. for 1 hour. The cells were chilled over ice for 10 minutes and stained with propidium iodide (50 μg/mL final concentration) for 1 hour and analyzed by flow cytometry (BD Accuri C6; Becton Dickinson, Mountain View, CA, USA). Data was analyzed by using Modfit software.
(§2) To examine the effect on cell cycle distribution, cervical cancer cells were treated with Br-ORM (10 and 15 μM) and analyzed by flow cytometry (FIG. 13F(i)-(ii)).

SiHa cells [2] = assay: Cell cycle analysis by flow cytometry, SiHa; assay type: cell-based, human; conditions: 10 and 15 μM
Method: as §1, §2

β-catenin in CaSki cells = assay: β-catenin degradation with cyclohexamide (western blot, pulse chase), CaSki; assay type: cell-based, human; conditions: ORM-Br
Method: A western blot analysis was conducted to determine the effect of ORM-Br on β-catenin degradation. […] Protein lysates were prepared and subjected to western blot analysis to ascertain the levels of protein of β-catenin in cyclohexamide-treated cells (FIG. 3A) and in ORM-Br and cyclohexamide-treated cells (FIG. 3B).

[3] = tested on: CaSki cells derived xenograft tumors; assay: Orthotopic xenograft mouse model of cervical cancer; assay type: in vivo, female athymic nude mice; conditions: 250 μg/mice intra-tumoral
[4] = three times per week, vs control

In the case of `COc1ccc2c(c1)OC(C)(C)C(c1ccc(Br)cc1)C2c1ccc(OCCN2CCCC2)cc1` (stereo not shown) [ORM-Br], the “colony formation (clonogenic potential)” value (SiHa cells [1]) is reported as “suppresses the clonogenic potential”, the “colony formation (clonogenic potential)” value (SiHa cells [1]; listed as Br-ORM) is reported as “significantly decreased the number of colonies” and the cell cycle distribution (CaSki cells) is reported as “arrested cell cycle progression of CaSki and SiHa cells at G1/S phase”. The cell cycle distribution (SiHa cells [2]) was “arrested cell cycle progression of CaSki and SiHa cells at G1/S phase”, the “protein levels of β-catenin relative to cyclohexamide treatment” value (β-catenin in CaSki cells) was “significant decrease in protein levels of β-catenin” and the tumor volume [3, 4] was “significantly (p<0.05) reduced”. For the same molecule, the tumor weight [3, 4] was “significantly (p<0.05) reduced”, the “expression of E-cadherin in xenograft tumors (IHC)” value ([3]; excised tumors) was “increase in the expression of E-cadherin” and the “expression of miR-200a in excised xenograft tumors (in situ hybridization)” value ([3]; excised tumors) was “Increased expression of miR-200a”. For the same molecule, the “expression of β-catenin, vimentin, snail, slug, HPV-E6, HPV-E7, and PCNA in xenograft tumors (IHC)” value ([3]; excised tumors) was “significant downregulation”.
